The text below walks through data of article PMC7827406, “Structure–Activity Relationship (SAR) Study of Spautin-1 to Entail the Discovery of Novel NEK4 Inhibitors” (International Journal of Molecular Sciences, 2021).

Read-outs that look alike come from different tables or passages of the source.

Common to all, as to assay: biochemical
Holding throughout (set-up): Eurofins KinaseProfiler full panel at Km ATP, residual kinase activity (%) relative to DMSO

The target of one assay is T1, PDGFRα(V561D)(h) (Homo sapiens, UniProt P16234, V561D).
T1 construct: gene PDGFRA
A digest of the protocol:
(§1)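 Radiometric kinase activity assays were run with ATP at Km and compounds at 10 µM, and remaining activity (%) was reported. A separate competitive binding screen measured DNA-tagged kinase displaced from immobilized active-site ligands by qPCR, giving percent kinase still bound at 10 µM compound in DMSO.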

The next assay has as its target CDK1/cyclinB(h) (Homo sapiens, UniProt P06493). A digest of the protocol:
as §1

The next assay has as its target MELK(h) (Homo sapiens, UniProt Q14680). A digest of the protocol: as §1
The target of a further assay is T2, Tie2 (h) (Homo sapiens, UniProt Q02763).
T2 construct: gene TEK
A digest of the protocol:
as §1

The target of another assay is STK32C(h) (Homo sapiens, UniProt Q86UX6). A digest of the protocol: as §1
The next assay deals with T3, JAK3(h) (Homo sapiens, UniProt P52333).
T3 sequence (P52333 1-1124): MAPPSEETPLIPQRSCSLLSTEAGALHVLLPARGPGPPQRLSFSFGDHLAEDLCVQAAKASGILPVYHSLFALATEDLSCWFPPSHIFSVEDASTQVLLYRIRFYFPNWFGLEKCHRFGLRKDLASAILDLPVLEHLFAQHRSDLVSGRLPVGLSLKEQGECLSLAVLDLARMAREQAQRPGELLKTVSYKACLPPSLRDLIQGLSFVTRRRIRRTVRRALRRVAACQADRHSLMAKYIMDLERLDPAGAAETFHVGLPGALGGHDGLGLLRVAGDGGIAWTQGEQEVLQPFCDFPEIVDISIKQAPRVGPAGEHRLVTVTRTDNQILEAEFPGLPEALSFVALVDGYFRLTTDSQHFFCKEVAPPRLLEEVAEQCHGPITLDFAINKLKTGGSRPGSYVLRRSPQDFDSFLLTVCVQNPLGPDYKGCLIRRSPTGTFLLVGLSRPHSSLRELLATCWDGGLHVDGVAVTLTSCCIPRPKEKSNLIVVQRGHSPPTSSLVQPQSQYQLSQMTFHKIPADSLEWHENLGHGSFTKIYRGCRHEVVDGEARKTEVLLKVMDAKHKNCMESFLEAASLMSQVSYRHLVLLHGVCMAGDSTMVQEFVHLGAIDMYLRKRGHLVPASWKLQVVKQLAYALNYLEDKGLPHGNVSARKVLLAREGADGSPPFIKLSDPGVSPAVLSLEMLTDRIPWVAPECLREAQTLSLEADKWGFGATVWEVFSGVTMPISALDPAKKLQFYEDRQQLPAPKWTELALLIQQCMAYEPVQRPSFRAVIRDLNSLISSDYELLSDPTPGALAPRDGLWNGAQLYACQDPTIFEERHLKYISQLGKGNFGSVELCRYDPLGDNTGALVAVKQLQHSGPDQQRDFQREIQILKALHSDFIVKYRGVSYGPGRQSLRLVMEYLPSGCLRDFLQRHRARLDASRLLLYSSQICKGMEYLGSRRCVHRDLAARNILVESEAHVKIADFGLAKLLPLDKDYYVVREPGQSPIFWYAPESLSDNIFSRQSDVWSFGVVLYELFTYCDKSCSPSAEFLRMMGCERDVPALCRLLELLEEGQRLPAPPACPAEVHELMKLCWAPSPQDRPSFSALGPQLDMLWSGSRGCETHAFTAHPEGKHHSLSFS
A digest of the protocol:
as §1

The target of another assay is CDK18/cyclinY(h) (Homo sapiens, UniProt Q07002). A digest of the protocol:
as §1

A further assay concerns the target CDK2/cyclinE(h) (Homo sapiens, UniProt P24941). A digest of the protocol: as §1
[1] abbreviates: read-out: Residual activity (%) Spautin-1 5aa.
Where [2] appears, read: read-out: Residual activity (%) 5as.
[3] abbreviates: read-out: Residual activity (%) 5at.
Where [4] appears, read: read-out: Residual activity (%) 5ay.

T2 sequence (Q02763 whole entry): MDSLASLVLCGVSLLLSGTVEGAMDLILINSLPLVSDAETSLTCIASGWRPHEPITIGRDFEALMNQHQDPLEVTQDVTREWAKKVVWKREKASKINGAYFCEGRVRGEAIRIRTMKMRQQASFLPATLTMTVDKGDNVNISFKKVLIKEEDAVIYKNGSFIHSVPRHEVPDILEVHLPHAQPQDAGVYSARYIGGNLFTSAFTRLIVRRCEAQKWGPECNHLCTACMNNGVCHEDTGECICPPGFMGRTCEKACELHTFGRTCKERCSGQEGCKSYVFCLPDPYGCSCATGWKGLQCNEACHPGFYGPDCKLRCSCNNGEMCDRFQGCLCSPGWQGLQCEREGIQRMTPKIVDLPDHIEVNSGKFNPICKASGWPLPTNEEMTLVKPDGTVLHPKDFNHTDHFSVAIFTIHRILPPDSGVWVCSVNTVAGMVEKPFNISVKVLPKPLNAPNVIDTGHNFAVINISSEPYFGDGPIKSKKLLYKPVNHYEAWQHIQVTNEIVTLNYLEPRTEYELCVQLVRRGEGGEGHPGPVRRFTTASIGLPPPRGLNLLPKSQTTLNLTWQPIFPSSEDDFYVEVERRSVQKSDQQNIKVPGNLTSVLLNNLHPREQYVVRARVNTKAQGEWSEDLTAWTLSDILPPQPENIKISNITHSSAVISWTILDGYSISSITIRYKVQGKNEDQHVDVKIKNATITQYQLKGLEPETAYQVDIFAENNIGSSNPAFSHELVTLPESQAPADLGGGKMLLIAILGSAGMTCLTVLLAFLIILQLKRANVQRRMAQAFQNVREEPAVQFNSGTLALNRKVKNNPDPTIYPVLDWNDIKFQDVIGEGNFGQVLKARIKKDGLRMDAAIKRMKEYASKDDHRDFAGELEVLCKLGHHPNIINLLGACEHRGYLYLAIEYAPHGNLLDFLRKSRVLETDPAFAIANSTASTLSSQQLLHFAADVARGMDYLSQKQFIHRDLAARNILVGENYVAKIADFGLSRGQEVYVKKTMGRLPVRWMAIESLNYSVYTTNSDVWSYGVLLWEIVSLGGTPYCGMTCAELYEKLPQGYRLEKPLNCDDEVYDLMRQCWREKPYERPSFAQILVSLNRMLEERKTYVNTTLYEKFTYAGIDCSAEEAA
STK32C(h), sequence (Q86UX6 whole entry): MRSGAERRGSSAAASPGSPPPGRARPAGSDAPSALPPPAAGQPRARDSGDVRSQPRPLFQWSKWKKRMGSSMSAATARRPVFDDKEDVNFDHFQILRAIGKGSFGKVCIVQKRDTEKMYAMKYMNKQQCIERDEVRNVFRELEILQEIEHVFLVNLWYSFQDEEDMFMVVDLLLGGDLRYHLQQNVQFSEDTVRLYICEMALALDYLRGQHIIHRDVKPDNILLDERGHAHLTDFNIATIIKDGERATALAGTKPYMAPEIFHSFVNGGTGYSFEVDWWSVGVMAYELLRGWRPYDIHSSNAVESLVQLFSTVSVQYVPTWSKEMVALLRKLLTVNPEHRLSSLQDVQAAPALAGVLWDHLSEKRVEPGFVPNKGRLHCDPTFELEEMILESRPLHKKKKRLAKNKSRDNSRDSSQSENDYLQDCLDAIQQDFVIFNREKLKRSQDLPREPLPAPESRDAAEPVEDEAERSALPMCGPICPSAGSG
T1 sequence (P16234 whole entry V561D): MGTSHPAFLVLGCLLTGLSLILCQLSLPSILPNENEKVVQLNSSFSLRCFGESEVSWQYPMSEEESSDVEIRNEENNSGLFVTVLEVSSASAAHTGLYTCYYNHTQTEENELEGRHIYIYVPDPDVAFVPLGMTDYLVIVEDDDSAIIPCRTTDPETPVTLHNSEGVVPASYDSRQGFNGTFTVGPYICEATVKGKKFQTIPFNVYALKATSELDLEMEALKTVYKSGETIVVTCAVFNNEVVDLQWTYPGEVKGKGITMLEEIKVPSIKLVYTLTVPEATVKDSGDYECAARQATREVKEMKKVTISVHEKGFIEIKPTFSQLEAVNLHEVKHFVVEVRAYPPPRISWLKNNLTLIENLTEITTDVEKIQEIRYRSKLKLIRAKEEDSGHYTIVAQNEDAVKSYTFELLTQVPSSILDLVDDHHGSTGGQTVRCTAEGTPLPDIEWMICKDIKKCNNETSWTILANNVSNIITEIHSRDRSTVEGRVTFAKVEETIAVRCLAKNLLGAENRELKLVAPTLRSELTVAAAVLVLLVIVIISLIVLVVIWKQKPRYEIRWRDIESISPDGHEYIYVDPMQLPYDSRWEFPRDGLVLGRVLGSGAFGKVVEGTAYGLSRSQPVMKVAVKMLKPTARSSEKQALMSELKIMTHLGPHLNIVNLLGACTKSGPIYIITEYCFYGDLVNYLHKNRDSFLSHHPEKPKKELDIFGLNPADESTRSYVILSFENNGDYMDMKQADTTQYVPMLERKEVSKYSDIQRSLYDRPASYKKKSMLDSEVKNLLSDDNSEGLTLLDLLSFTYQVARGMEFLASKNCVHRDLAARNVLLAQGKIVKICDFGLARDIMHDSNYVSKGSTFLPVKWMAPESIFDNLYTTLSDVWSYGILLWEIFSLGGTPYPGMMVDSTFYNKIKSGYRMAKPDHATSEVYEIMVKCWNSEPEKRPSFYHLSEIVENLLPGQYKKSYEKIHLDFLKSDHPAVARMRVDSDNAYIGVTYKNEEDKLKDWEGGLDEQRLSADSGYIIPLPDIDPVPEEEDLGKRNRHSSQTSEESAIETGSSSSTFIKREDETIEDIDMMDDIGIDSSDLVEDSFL
CDK1/cyclinB(h), sequence (P06493 whole entry): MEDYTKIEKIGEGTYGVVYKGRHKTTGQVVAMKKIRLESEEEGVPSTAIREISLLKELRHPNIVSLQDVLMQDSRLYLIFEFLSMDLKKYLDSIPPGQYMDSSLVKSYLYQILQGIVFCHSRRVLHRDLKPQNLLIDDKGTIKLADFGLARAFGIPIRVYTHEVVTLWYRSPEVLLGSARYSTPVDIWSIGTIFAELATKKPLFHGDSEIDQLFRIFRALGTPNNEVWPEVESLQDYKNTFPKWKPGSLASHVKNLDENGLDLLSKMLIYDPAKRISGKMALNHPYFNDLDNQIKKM
CDK1/cyclinB(h), sequence (P14635 whole entry partner): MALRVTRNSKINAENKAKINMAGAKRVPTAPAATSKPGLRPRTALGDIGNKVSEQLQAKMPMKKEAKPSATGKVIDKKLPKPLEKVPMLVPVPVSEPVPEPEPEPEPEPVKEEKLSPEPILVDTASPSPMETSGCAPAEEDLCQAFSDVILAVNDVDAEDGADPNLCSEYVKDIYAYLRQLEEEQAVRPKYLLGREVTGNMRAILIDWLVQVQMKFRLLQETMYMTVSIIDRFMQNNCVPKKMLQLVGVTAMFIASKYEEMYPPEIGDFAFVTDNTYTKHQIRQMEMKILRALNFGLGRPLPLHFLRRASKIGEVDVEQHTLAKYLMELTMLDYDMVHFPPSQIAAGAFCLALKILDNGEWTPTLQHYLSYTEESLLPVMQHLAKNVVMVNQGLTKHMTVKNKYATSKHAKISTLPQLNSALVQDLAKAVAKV
CDK18/cyclinY(h), sequence (Q07002 whole entry): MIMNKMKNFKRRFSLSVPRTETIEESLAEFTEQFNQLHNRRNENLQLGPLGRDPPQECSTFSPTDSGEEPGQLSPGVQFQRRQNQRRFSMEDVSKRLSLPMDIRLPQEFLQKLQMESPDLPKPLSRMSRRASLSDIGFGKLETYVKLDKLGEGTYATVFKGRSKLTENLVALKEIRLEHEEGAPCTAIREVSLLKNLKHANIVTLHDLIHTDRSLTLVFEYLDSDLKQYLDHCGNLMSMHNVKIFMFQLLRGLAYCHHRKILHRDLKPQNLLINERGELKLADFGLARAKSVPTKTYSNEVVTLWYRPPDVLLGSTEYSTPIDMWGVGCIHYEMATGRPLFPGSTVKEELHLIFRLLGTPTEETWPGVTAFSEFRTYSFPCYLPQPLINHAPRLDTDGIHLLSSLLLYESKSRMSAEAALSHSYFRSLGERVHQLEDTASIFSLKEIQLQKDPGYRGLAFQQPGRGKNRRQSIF
CDK18/cyclinY(h), sequence (Q8ND76 whole entry partner): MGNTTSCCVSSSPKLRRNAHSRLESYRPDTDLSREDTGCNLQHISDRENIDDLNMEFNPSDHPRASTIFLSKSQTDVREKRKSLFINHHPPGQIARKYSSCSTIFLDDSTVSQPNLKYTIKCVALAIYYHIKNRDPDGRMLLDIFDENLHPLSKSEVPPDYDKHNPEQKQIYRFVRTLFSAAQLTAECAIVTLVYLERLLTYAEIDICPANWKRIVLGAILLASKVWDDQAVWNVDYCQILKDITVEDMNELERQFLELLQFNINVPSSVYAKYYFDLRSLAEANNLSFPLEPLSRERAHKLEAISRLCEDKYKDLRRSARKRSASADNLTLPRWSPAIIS
MELK(h), sequence (Q14680 whole entry): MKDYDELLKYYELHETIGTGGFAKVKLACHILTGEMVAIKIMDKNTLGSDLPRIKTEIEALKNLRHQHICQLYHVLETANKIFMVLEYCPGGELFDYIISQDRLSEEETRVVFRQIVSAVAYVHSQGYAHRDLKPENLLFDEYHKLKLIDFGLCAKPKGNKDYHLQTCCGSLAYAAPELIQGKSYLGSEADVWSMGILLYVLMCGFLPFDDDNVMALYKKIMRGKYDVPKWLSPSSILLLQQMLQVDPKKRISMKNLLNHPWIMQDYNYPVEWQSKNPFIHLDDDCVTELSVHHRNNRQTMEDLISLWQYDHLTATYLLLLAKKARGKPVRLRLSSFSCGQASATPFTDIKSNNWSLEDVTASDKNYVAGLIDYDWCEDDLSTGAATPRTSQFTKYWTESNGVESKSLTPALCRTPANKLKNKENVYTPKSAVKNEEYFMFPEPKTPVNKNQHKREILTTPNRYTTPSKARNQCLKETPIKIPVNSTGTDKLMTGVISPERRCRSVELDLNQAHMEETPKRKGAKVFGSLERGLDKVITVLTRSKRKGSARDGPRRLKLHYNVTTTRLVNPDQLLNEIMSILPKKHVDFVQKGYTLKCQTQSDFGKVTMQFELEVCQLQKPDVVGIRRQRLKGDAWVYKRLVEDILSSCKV

As for `Fc1ccc(CNc2ncnc3ccc(F)cc23)cc1` [5aa, 6-Fluoro-N-(4-fluorobenzyl)-4-Quinazolinamine], the remaining activity at 10 µM at PDGFRα(V561D)(h) (setting [1]) is 86%; at CDK1/cyclinB(h) (setting [1]), 87%; at MELK(h) (setting [1]), 86%; at Tie2 (h) (setting [1]), 104%; on STK32C(h) (setting [1]) it was 106%; at JAK3(h) (setting [1]), 94%. For the same compound, the figures for the remaining activity at 10 µM at CDK18/cyclinY(h) (setting [1]) and at CDK2/cyclinE(h) (setting [1]) were 87% and 69%, respectively.
Regarding `Fc1ccc(CCNc2ncnc3ccc(F)cc23)cc1` [5as, 6-Fluoro-N-[2-(4-Fluorophenyl)Ethyl]-4-Quinazolinamine], the remaining activity at 10 µM at PDGFRα(V561D)(h) (setting [2]) came to 92%; at CDK1/cyclinB(h) (setting [2]) it was 90%; on MELK(h) (setting [2]), 90%; at Tie2 (h) (setting [2]) it was 92%; at STK32C(h) (setting [2]), 95%; at JAK3(h) (setting [2]), 94%. The remaining activity at 10 µM on CDK18/cyclinY(h) (setting [2]) amounted to 102%; on CDK2/cyclinE(h) (setting [2]), 103%.
As for `Fc1ccc2ncnc(NCCc3ccc(Cl)cc3)c2c1` [5at, N-[2-(4-Chlorophenyl)Ethyl]-6-Fluoro-4-Quinazolinamine], the remaining activity at 10 µM amounted to 90% on PDGFRα(V561D)(h) (setting [3]); 91% at CDK1/cyclinB(h) (setting [3]); 73% on MELK(h) (setting [3]); 75% on Tie2 (h) (setting [3]); 106% on STK32C(h) (setting [3]); 92% on JAK3(h) (setting [3]). For the same compound, the figures for the remaining activity at 10 µM at CDK18/cyclinY(h) (setting [3]) and at CDK2/cyclinE(h) (setting [3]) were 116% and 54%, respectively.
Regarding `COc1ccc2ncnc(Nc3cccc(F)c3)c2c1` [5ay, N-(3-Fluorophenyl)-6-Methoxy-4-Quinazolinamine], the remaining activity at 10 µM stood at 98% on PDGFRα(V561D)(h) (setting [4]); 72% on CDK1/cyclinB(h) (setting [4]); 95% at MELK(h) (setting [4]); 94% on Tie2 (h) (setting [4]); 102% on STK32C(h) (setting [4]); 91% on JAK3(h) (setting [4]). Further, the remaining activity at 10 µM amounted to 86% at CDK18/cyclinY(h) (setting [4]) and 89% at CDK2/cyclinE(h) (setting [4]).
